In EP0880540B1, “17-BETA-CYCLOPROPYL(AMINO/OXY) 4-AZA STEROIDS AS ACTIVE INHIBITORS OF TESTOSTERONE 5-ALPHA-REDUCTASE AND C17-20-LYASE” (Aventis Pharmaceuticals Inc., priority 1996, dated 1997):

How the values were obtained:
[1] = molecular target: T1, cynomolgus monkey C17,20 lyase (Macaca fascicularis, UniProt Q2XVA1); experiment: In vitro C17,20 lyase assay, testicular microsomes; format: biochemical; details: mean of duplicates
T1 construct: microsomal preparations of the enzyme from testicular tissue; from tissue; host or cells: cynomolgus monkey testes, microsomes
T1 sequence (Q2XVA1 1-508): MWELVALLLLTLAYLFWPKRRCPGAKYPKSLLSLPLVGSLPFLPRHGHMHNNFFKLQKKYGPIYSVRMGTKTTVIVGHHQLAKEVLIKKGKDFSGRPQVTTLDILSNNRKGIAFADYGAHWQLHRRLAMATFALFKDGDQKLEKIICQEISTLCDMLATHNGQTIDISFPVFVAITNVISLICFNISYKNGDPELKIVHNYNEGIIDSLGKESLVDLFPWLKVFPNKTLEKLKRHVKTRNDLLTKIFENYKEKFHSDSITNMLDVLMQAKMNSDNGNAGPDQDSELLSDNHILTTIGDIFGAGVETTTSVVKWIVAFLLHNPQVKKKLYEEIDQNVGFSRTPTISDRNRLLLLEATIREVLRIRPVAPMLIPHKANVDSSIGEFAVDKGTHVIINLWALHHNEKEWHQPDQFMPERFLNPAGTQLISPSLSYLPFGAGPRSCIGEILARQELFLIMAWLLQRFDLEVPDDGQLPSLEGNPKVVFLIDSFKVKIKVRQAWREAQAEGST
Method: In vitro C17,20 lyase assays: Compounds were tested for inhibition of cynomolgus monkey C17,20 lyase in vitro using microsomal preparations of the enzyme from testicular tissue. Testes were removed from anesthetized animals and flash frozen in liquid nitrogen. Microsomes were isolated as described in Schatzman et al., Anal. Biochem. 175, 219-226 (1988). The compound to be tested was dissolved in dimethyl sulfoxide and diluted in 0.05 M potassium phosphate buffer, pH 7.4, to give the desired concentrations of test compound, in an amount which contributed 0.1% v/v DMSO to the total assay volume. Assays contained 0.05 M potassium phosphate buffer, pH 7.4, an NADPH regenerating system (1 mM NADPH, 5 mM glucose-6-phosphate, 1 IU/mL glucose-6-phosphate dehydrogenase), test compound, substrate and microsomal protein in a total volume of 0.2 mL. Control assays contained all components, including dimethyl sulfoxide, but not test ccmpound. All assays were performed in duplicate. The test compound was incubated with 20 to 62 µg/mL microsomal protein, buffer, and the NADPH regenerating system described above at 34°C for 0 or 40 minutes. Aliquots of 180 µL were then removed and assayed for enzyme activity by addition to 7-[^3H]-17α-hydroxypregnenolone (11.2 mCi/mmole; 0.2 µCi per assay) plus unlabeled 17α-hydroxypregnenolone dissolved in DMSO, contributing 2.5% v/v to the final assay mix, and phosphate buffer to give a total substrate concentration of 0.05 µM (=Km) per assay and subsequent incubation at 34°C for 6 minutes. Each assay was terminated by addition of 5 mL of chloroform:methanol (2:1). Carrier steroids representing substrates and produces (17α-hydroxypregnenolone, dehydroepiandrosterone, and androst-5-ene-3β,17β-diol) and 0.8 mL of distilled, deionized water were also added at this time. The steroids were extracted by the method of Moore and Wilson (Methods in Enzymol., eds. O. Malley, B.W. and Hardman, J.G. 36, 1975, pp. 466-474). The organic phase containing the steroids was evaporated using nitrogen gas, the residues dissolved in 18% tetrahydrofuran (v/v) in hexane, and the steroids were separated by HPLC on a Si60 (5 µm) column (250 x 4 mm) using a gradient of 18-22% tetrahydrofuran (v/v) in hexane. Radioactivity in the steroid peaks was measured using a Radiomatic® Model ES or Model A515 Flo-One® detector.
The enzyme activity for each assay was calculated from the percent conversion of substrate to products, and the results were expressed as percent inhibition of control. The following results were obtained, wherein the values indicated are the mean of duplicate determinations: Table 1: […]

Dunning H Tumor = experiment: Dunning H tumor growth in rats; format: in vivo, male Copenhagen rats; details: MDL 105831 15 mg/kg/day PO, MDL 15910 50 mg/kg/day PO
Source text: As described in J.T. Isaacs & D.S. Coffey, Cancer Res. 41:5070-5075 (1981); W.J. Ellis & J.T. Issacs, Cancer Res. 45:6041-6050 (1985); T.W. Bedding & A.V. Schally, The Prostate 6:219-232 (1985) and P.E. Juniewicz et al. The Prostate 18:105-115 (1991), male Copenhagen rats were obtained from HARLAN-SPRAGUE-DAWLEY Inc. (Indianapolis, IN), and were individually housed in suspended wire cages and provided laboratory rodent chow (Purina 5001 pellets, Purina Mills, St. Louis, MO) and deionized water ad libum. The rats were anesthetized using sodium pentobarbital and the hair was clipped from the back dorsal area. Tumors from donor Copenhagen rats were cut into fragments of 10 mm^3 and implanted subcutaneously (one site per rat) into the prepared dorsal area.
Animals were selected (105 days post implantation) for the treatment phase based on tumor size. Ten animals were anesthetized with sodium pentobarbital and bilaterally castrated. The remaining animals were assigned to treatment groups (ten per group) based on mean group tumor size. Animals were kept separate throughout the study. The tested compounds were prepared in solution or suspension in a lecithin vehicle (L-α-phosphatidylcholine type XV-E) containing methylparaben and propylparaben. All treatments were performed by oral gavage (per os) at 2 cc/kg each day of study. Tumor size and rat body weights were recorded every seven days over a period of 35 days. Twenty-four hours after the last treatment animals were euthenized by CO2 and the tumors, prostate, seminal vesicles and testes were removed and weighed. In Table 4, average tumor growth is determined from the corrected group means over a 35 day period after treatment was started. […] The animals eliminated from the calculation of the corrected means were in Figure 6, animals 8, 9, 10; in Figure 7, animals 18, 19 and 20; in Figure 8, animals 27, 28, 29 and 30; and in Figure 9, animals 37, 39 and 40. The castrated controls in Figure 10 present a different problem. Here it is believed that the different tumor volumes observed throughout the group is attributable to the different sizes at the beginning of the study. Since the mean variance here is clearly attributable to factors other than the effect of the castration itself, animals 47, 48, 49 and 50 were deleted from the corrected mean. Of these, animal 47 died during the treatment period.
Table 4 indicates the average daily growth rate, measured from the corrected mean tumor size on day 35 and day 0, comparing MDL 105831 and flutamide (MDL 15910), a known androgen receptor antagonist. […]

PC-82 Human Tumor = experiment: PC-82 human tumor growth in nude mice; format: in vivo, male nude mice; details: MDL 103432 and MDL 105831 50 mg/kg B.I.D., MDL 15910 15 mg/kg B.I.D., per os
Source text: As described in van Steenbrugge, G.J. et al., J. Urol 131: 812-817 (1984) van Steenbrugge G.J. et al., The Prostate 11: 195-210 (1987) and Redding, T.W. et al., Cancer Research 52, 2538-2544 (1992), male nude mice (Hsd:athymic, Nude-nu) were obtained from Harlan Sprague Dawley. Mice were housed in sterilized micro-isolators and fed autoclaved ABLE® rodent chow (Purina Mills Inc., St. Louis, MO) and deionized water, adlibitum. Tumor-donating mice were first anesthetized using sodium pentobarbital and then sacrificed by cervical dislocation. The tumor was subsequently excised and placed in a petri dish containing ice-cold Hanks balanced salt solution. Tumors were cut into 2-3 mm cubes for implantation. Recipient animals were first anesthetized with 50 mg/kg pentobarbital, then implanted, by use of a trocar, with tumor fragments (one per mouse) in the dorsal area. Animals were separated into two control groups, one with vehicle alone and the other castrated, and the treatment groups, where n is the number of animals in each group.
Animals were selected for treatment groups based on tumor size. Each test compound was prepared as a solution or suspension in a lecithin vehicle (L-α-phosphatidylcholine type XV-E) containing methylparaben and propylparaben at a dose volume of 10 cc/kg. Animals were treated for 42 days by oral gavage (per os) seven days per week. Twenty-four hours after the last treatment the animals were euthenized by CO2 and tumors were removed and weighed. During the study period, mice were weighed and palpated weekly for tumors. In Table 5, average tumor growth is determined from the corrected group means over a 28 day period after treatment was started. […] The following animal data was deleted before computation of the corrected mean data in Table 5, Fig. 1: animals 4 and 44; Fig. 2: animals 10, 38 and 42; Fig. 3: Animal 39; Fig. 4: Animals 8, 9 and 49; Fig. 5: Animals 37 and 40 and 41.
Table 5 illustrates the average tumor growth in animals treated with 4-aza-17β-(cyclopropyloxy)-5α-androstan-3-one (MDL 103432; 50 mg/kg B.I.D.) 4-aza-17β-(cyclopropylamino)-androst-5(6)-en-3-one (MDL 105831; 50 mg/kg B.I.D.) and flutamide (MDL 15,910; 15 mg/kg B.I.D.), a known androgen receptor antagonist. The average growth rate of each tested compound relative to the vehicle and castrated controls is consistent with the in vivo inhibition of androgens.

SMILES | inhibition at 0.1 µM ([1]; preincubation 0 min) | inhibition at 0.1 µM ([1]; preincubation 40 min) | inhibition at 1 µM ([1]; preincubation 0 min) | inhibition at 1 µM ([1]; preincubation 40 min) | inhibition at 10 µM ([1]; preincubation 0 min) | inhibition at 10 µM ([1]; preincubation 40 min) | Tumor Growth in Dunning H Rat, Day 0 (Dunning H Tumor; Day 0 (baseline), corrected group mean) | Tumor Growth in Dunning H Rat, Day 7 (Dunning H Tumor; Day 7, corrected group mean) | Tumor Growth in Dunning H Rat, Day 16 (Dunning H Tumor; Day 16, corrected group mean) | Tumor Growth in Dunning H Rat, Day 21 (Dunning H Tumor; Day 21, corrected group mean) | Tumor Growth in Dunning H Rat, Day 29 (Dunning H Tumor; Day 29, corrected group mean) | Tumor Growth in Dunning H Rat, Day 35 (Dunning H Tumor; Day 35, corrected group mean) | Δv/Δt (day 35-day 0) (Dunning H Tumor; average daily growth rate from corrected mean tumor size) | Tumor Growth in PC-82 Human Tumor in Male Nude Mice, Day 7 (PC-82 Human Tumor; Day 7, corrected group mean) | Tumor Growth in PC-82 Human Tumor in Male Nude Mice, Day 15 (PC-82 Human Tumor; Day 15, corrected group mean) | Tumor Growth in PC-82 Human Tumor in Male Nude Mice, Day 21 (PC-82 Human Tumor; Day 21, corrected group mean) | Tumor Growth in PC-82 Human Tumor in Male Nude Mice, Day 28 (PC-82 Human Tumor; Day 28, corrected group mean) | Tumor Growth in PC-82 Human Tumor in Male Nude Mice, Day 35 (PC-82 Human Tumor; Day 35, corrected group mean) | Tumor Growth in PC-82 Human Tumor in Male Nude Mice, Day -4 (PC-82 Human Tumor; Day -4 (before treatment), corrected group mean) | Δv/Δt (day 35-day 7) (PC-82 Human Tumor; average tumor growth over 28 days from corrected group means)
CN1C(=O)CC[C@@]2(C)C1=CC[C@H]1[C@@H]3CC[C@H](OC4CC4)[C@@]3(C)CC[C@@H]12 (stereo in doubt) [MDL 104,313, 17β-Cyclopropyloxy-4-methyl-4-aza-androst-5-en-3-one] | -18.4% | -8.7% | 23.8% | 39.9% | 63.6% | 70.2% | – | – | – | – | – | – | – | – | – | – | – | – | – | –
CC12C=CC(=O)N[C@@H]1CCC1C2CCC2(C)C1CC[C@@H]2OC1CC1 (stereo partly drawn) [MDL 103,129, 17β-Cyclopropyloxy-4-aza-5α-androst-1-en-3-one] | 6.4% | 18.3% | 40.7% | 46.9% | 77.3% | 84.3% | – | – | – | – | – | – | – | – | – | – | – | – | – | –
CC(C)C(=O)Nc1ccc([N+](=O)[O-])c(C(F)(F)F)c1 [MDL 15910, N-(3-Trifluoromethyl-4-nitro-phenyl)-isobutyramide, reference compound] | – | – | – | – | – | – | 317.00 mm^3 | 604.64 mm^3 | 877.86 mm^3 | 851.29 mm^3 | 1313.57 mm^3 | 1214.57 mm^3 | 25.64 mm^3/day | 222.7 mm^3 | 262.9 mm^3 | 319.7 mm^3 | 563.4 mm^3 | 479.3 mm^3 | 138.7 mm^3 | 9.16 mm^3/day
